This note sets out measurements from PubChem BioAssay AID1996.

Each structure is given as a SMILES string. In brackets after ≈: the same amount, converted by molar mass.

The conditions of this series: buffer; pH 7.4; 200.0 µM.
Regarding `COc1ccc(C(=O)/C=C/Nc2ccccn2)c(OC)c1`, the solubility (kinetic) (in general, solubility judged after dilution from a stock solution rather than from solid) turned out to be 4.2 µg/mL (≈ 14.8 µM). Compound `O=c1nc(N2CCCC2)nc(N2CCCC2)[nH]1` yielded a solubility (kinetic) of 34.3 µg/mL (≈ 146 µM).

`Cl.NCCOc1ccccc1OCCN` gave a kinetic solubility greater than 40.4 µg/mL. In the case of `S=C(NCCCc1ccccc1)Nc1ccc(Br)cc1`, the kinetic solubility was 4.5 µg/mL (≈ 12.9 µM).

In the case of `c1nc(Nc2ccc(N3CCOCC3)cc2)c2ccsc2n1`, the solubility (kinetic) is greater than 46.9 µg/mL. As for `CC(NC(=O)C(Cc1ccccc1)n1cccc1)c1ccccc1` (configuration not stated), the figure is 11.6 µg/mL (≈ 36.4 µM); as for `COC(=O)c1cc(NC(=O)c2cccc(F)c2)cc(C(=O)OC)c1`, 0.7 µg/mL (≈ 2.11 µM); as for `Cn1cc(/C=C(\C#N)C(=O)Nc2ccccc2O)c2ccccc21`, less than 0.2 µg/mL. The figure for `Cc1cccnc1Nc1ncnc(N)c1[N+](=O)[O-]` is 36.3 µg/mL (≈ 147 µM); for `Cc1cc(OCC(=O)Nc2ccc3oc(=O)ccc3c2)ccc1Cl` it is 2.4 µg/mL (≈ 6.98 µM); for `CC(=O)c1c(OC(=O)c2cccc(Cl)c2)c2ccccc2n1C` it is less than 0.7 µg/mL. The figure for `O=C(OCC(=O)c1ccc[nH]1)c1cncc(Br)c1` is 24.2 µg/mL (≈ 78.3 µM). `CCOc1ccc(NC(=O)NC2CCCc3ccccc32)cc1` (configuration not stated) yielded a solubility (kinetic) of 0.4 µg/mL (≈ 1.29 µM).

`CN1CCCNc2nc3ccccc3nc21` showed a solubility (kinetic) greater than 32.1 µg/mL.

The compound `CCOC(=O)C(=CNc1ccccc1N1CCOCC1)C(=O)OCC` had a kinetic solubility of 45.6 µg/mL (≈ 131 µM). As for `CCOc1ncccc1C(=O)NCC(c1ccccc1)N(C)C` (configuration not stated), the figure is greater than 47 µg/mL.

Consider `CCc1ccc(C(=O)Nc2cc(C)on2)o1`, for which the solubility (kinetic) was greater than 33 µg/mL. The figure for `CC(=O)Oc1ccc(-c2nc3c(C)cccc3c(=O)o2)cc1` is 2.9 µg/mL (≈ 9.82 µM). Compound `Cc1noc(C)c1C(=O)Nc1sccc1C(N)=O` came in with a kinetic solubility of 7.7 µg/mL (≈ 29 µM).

`COc1ccc(S(=O)(=O)NCCc2ccccn2)cc1` gave a solubility (kinetic) greater than 43.9 µg/mL. The figure for `CNC(=O)Nc1cccc2cccnc12` is greater than 30.2 µg/mL; for `O=P(c1ccccc1)(c1ccccc1)C(O)c1ccccn1` (configuration not stated) it is greater than 46.4 µg/mL. For `NCCSc1c(-c2ccc(Cl)cc2)[nH]c2ccccc12`, the solubility (kinetic) was greater than 45.4 µg/mL.

For the compound `Cc1ccc(C(=O)OCC(=O)N2C(C)CCCC2C)s1` (configuration not stated), the solubility (kinetic) was found to be 28.2 µg/mL (≈ 95.5 µM). The figure for `Cc1ccc(-c2noc(N=O)c2NO)cc1` is 31.5 µg/mL (≈ 144 µM). As for `Cc1ccc(S(=O)(=O)N2CC3CCCC2C3)cc1` (configuration not stated), the figure is 34.9 µg/mL (≈ 132 µM).

For `Cc1ccc2c(COC(=O)c3c(C)noc3C)cc(=O)oc2c1`, the kinetic solubility worked out at 3.1 µg/mL (≈ 9.89 µM). As for `O=C1CCCC(=O)N1c1ccc(F)cc1`, the figure is greater than 31.1 µg/mL; as for `CC1CCCN(C(=O)c2ccc([N+](=O)[O-])o2)C1` (configuration not stated), greater than 35.7 µg/mL. The figure for `O=C(Nc1ncccn1)c1ccc([N+](=O)[O-])cc1` is 36.5 µg/mL (≈ 149 µM); for `COc1cc2c(cc1OC)CN(c1ncccc1[N+](=O)[O-])CC2` it is 5.6 µg/mL (≈ 17.8 µM); for `CC(C)(C)c1ccc(C(=O)NC2CCN(Cc3ccccc3)CC2)cc1` it is 36.5 µg/mL (≈ 104 µM). The compound `Cc1occc1C(=O)Nc1cnn(CCCC(=O)O)c1` registered a kinetic solubility greater than 41.6 µg/mL. Compound `CCOc1ccc(N2C(=O)/C(=C/c3ccccn3)SC2=S)cc1` showed a solubility (kinetic) of less than 0.4 µg/mL.

As for `CCc1ccc(NC(=O)c2cnccn2)cc1`, the kinetic solubility turned out to be 21.4 µg/mL (≈ 94.2 µM). With `CC1(C)CC(=O)C(C2=NC3(CCCCCC3)Cc3ccccc32)=C(O)C1`, the solubility (kinetic) was found to be 49.8 µg/mL (≈ 142 µM). As for `Cc1cccc(OC(C)C(=O)N2CCCN(C)CC2)c1C` (configuration not stated), the figure is greater than 43.6 µg/mL; as for `Cc1ccc(S(=O)(=O)N2CCCCC2)cc1NC(=O)COC(=O)c1cccn1C`, 9 µg/mL (≈ 21.5 µM). As for `CN1CCN(S(=O)(=O)c2cccc3nsnc23)CC1`, the figure is greater than 44.8 µg/mL; as for `COCCN(C(=O)COC(=O)/C=C/c1cccc(C(F)(F)F)c1)c1c(N)n(CC(C)C)c(=O)[nH]c1=O`, 5.7 µg/mL (≈ 11.1 µM); as for `CO/N=C(\N)c1nonc1N`, 20.1 µg/mL (≈ 128 µM).

The compound `O=C1C(Cl)=C(N2CCCCCC2)C(=O)N1c1ccc(Br)cc1` displayed a kinetic solubility of 15.1 µg/mL (≈ 39.4 µM). In the case of `Cc1ccc(S(=O)(=O)N2CCOCC2)cc1NC(=O)CN1C(=O)NC2(CCCC2)C1=O`, the kinetic solubility was greater than 67.6 µg/mL. The figure for `Cc1nc(N2CCCCC2)c2c(-c3cccs3)csc2n1` is 2.3 µg/mL (≈ 7.29 µM). With `CC(OC(=O)CN1C(=O)C2C3C=CC(C4CC34)C2C1=O)C(=O)c1ccccc1` (configuration not stated), the solubility (kinetic) is greater than 56.9 µg/mL. The figure for `COc1ccc(-c2noc(=O)n2Cc2ccccc2F)cc1` is 29.6 µg/mL (≈ 98.6 µM). `O=C(NCCOc1ccccc1)C1CCCCC1`: the solubility (kinetic) was greater than 37.1 µg/mL. The figure for `CC(C)(C)C(=O)Nc1ccc(NC(=O)c2ccco2)nc1` is greater than 43.1 µg/mL; for `CC(C)n1c(O)c(C=NCc2ccccc2)c(=O)[nH]c1=S` it is 19.6 µg/mL (≈ 64.6 µM). The figure for `CCOC(=O)Cc1cc(=O)[nH]c(/N=C(\N)Nc2ccc(OC)cc2)n1` is 6.2 µg/mL (≈ 18 µM). As for `CC1CCCN(S(=O)(=O)c2cccc(C(=O)NCC3CCCO3)c2)C1` (configuration not stated), the figure is greater than 55 µg/mL; as for `Cc1ncc([N+](=O)[O-])n1CC(=O)Nc1cccc(C(F)(F)F)c1`, 6 µg/mL (≈ 18.3 µM).
